The values that follow come from patent US12612441B2, “Polypeptide and therapeutic uses thereof” (Vitalixir (Beijing) Co., Ltd, priority 2019, dated 2026).

The test system of this experiment is db/db mice. Description: Blood glucose lowering in db/db mice (Example 12). It is filed as in vivo. The conditions noted are these: db/db male mice, 35 nmol/kg subcutaneous single dose, 0-10 hours, AUC, vs PBS control; FIG. 9. On the procedure:
The feeding conditions of db/db mice were the same as described in Example 7. The db/db male mice (GemPharmatech, 7 weeks old) had one-week to acclimate to the environmental conditions of the test facility. Three days before the test (−3 day˜−1 day) baseline blood glucose and body weight were recorded. The mice were randomly grouped based on three-day blood glucose and body weight, with 6 mice in each group. Mice were injected subcutaneously with PBS (5 ml/kg, control group) or peptide compounds 42, 115, 178 (35 nmol/kg) at 10:00 in the morning. Blood was collected at 0 hour before drug administration, and 1.5, 4, 7, and 10 hours after administration, and blood glucose was measured using a OneTouch glucose meter (Johnson & Johnson) and test strips. By using time as the abscissa and the blood glucose value at different time points as the ordinate blood glucose curves were drawn, and the areas under the curve (AUC) were calculated to compare the hypoglycemic effects and duration of action of the peptide compounds.
In the case of “Y(aib)EGTFTSDLSI(aib)LEKEAVRLFIEWLLAG-NH2 (YXEGTFTSDLSIXLEKEAVRLFIEWLLAG; Aib; C-terminal amide; MOD_RES (2)..(2) X=aminoisobutyric aicd; MOD_RES (13)..(13) X=aminoisobutyric aicd; MOD_RES (29)..(29) AMIDATION, C-termianl amidation) [Compound 42]”, the blood glucose entry is given as “significantly reduced blood glucose”.

For “Y(aib)EGTFTSDLSI(aib)LEKEAVRLFIEWLLAGGPS-NH2 (YXEGTFTSDLSIXLEKEAVRLFIEWLLAGGPS; Aib; C-terminal amide; MOD_RES (2)..(2) X=aminoisobutyric aicd; MOD_RES (13)..(13) X=aminoisobutyric aicd; MOD_RES (32)..(32) AMIDATION, C-termianl amidation) [Compound 178]”, the blood glucose entry is reported as “significantly reduced blood glucose”.

Take “Y(aib)EGTFTSDLSI(aib)LEKEAVRLFIEWLLAGGPSSGA-NH2 (YXEGTFTSDLSIXLEKEAVRLFIEWLLAGGPSSGA; Aib; C-terminal amide; MOD_RES (2)..(2) X=aminoisobutyric aicd; MOD_RES (13)..(13) X=aminoisobutyric aicd; MOD_RES (35)..(35) AMIDATION, C-termianl amidation) [Compound 115]”: the blood glucose entry is “significantly reduced blood glucose”.
